Reference: ChEMBL document CHEMBL1201862, “PubChem BioAssay data set” (2004)
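Dose response: 5 concentrations. Exposure: 48 h. Format: 96-well plates. Endpoint: linear interpolation; highest concentration if not reached. At the GI50, growth is halved.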 Calls of active or inactive are those of the source. No stated cut-off is given here; in the data, active = GI50 up to about 1.1 µM and inactive = higher.

Tests used:
Experiment in all cases: inhibition of tumour cell growth, NCI panel, 48 h
M14 = tested on: M14
CCRF-CEM = tested on: CCRF-CEM
T47D = tested on: T47D
Malme-3M = tested on: Malme-3M
NCI/ADR-RES = tested on: NCI/ADR-RES
SW-620 = tested on: SW-620
HT-29 = tested on: HT-29
IGROV-1 = tested on: IGROV-1
MDA-MB-435 = tested on: MDA-MB-435
HOP-92 = tested on: HOP-92
RPMI-8226 = tested on: RPMI-8226
MCF7 = tested on: MCF7
SK-MEL-28 = tested on: SK-MEL-28
SK-MEL-2 = tested on: SK-MEL-2
HCT-15 = tested on: HCT-15
NCI-H522 = tested on: NCI-H522
OVCAR-8 = tested on: OVCAR-8
U-251 = tested on: U-251
A549 = tested on: A549
BT-549 = tested on: BT-549

| SMILES | GI50 (M14) | GI50 (CCRF-CEM) | GI50 (T47D) | GI50 (Malme-3M) | GI50 (NCI/ADR-RES) | GI50 (SW-620) | GI50 (HT-29) | GI50 (IGROV-1) | GI50 (MDA-MB-435) | GI50 (HOP-92) | GI50 (RPMI-8226) | GI50 (MCF7) | GI50 (SK-MEL-28) | GI50 (SK-MEL-2) | GI50 (HCT-15) [µM] | GI50 (NCI-H522) | GI50 (OVCAR-8) | GI50 (U-251) | GI50 (A549) | GI50 (BT-549) |
| --- | --- | --- | --- | --- | --- | --- | --- | --- | --- | --- | --- | --- | --- | --- | --- | --- | --- | --- | --- | --- |
| O=c1ccn([C@@H]2C[C@H]2CO)c(=O)[nH]1 | > 100 µM (inactive) | > 100 µM (inactive) | > 100 µM (inactive) | > 100 µM (inactive) | > 100 µM (inactive) | > 100 µM (inactive) | > 100 µM (inactive) | > 100 µM (inactive) | > 100 µM (inactive) | > 100 µM (inactive) | > 100 µM (inactive) | > 100 µM (inactive) | > 100 µM (inactive) | > 100 µM (inactive) | > 100 | > 100 µM (inactive) | > 100 µM (inactive) | > 100 µM (inactive) | > 100 µM (inactive) | > 100 µM (inactive) |
| CN1C(=O)C(O)C[C@@H]1c1ccccc1 (stereo not given in full) | > 100 µM (inactive) | > 100 µM (inactive) | > 100 µM (inactive) | > 100 µM (inactive) | > 100 µM (inactive) | > 100 µM (inactive) | > 100 µM (inactive) | > 100 µM (inactive) | > 100 µM (inactive) | > 100 µM (inactive) | > 100 µM (inactive) | > 100 µM (inactive) | > 100 µM (inactive) | > 100 µM (inactive) | > 100 | > 100 µM (inactive) | > 100 µM (inactive) | > 100 µM (inactive) | > 100 µM (inactive) | > 100 µM (inactive) |
| CN(C)CC/C=C1\c2ccccc2Sc2ccc(Cl)cc21 | 3.01 µM (inactive) | 8.2 µM (inactive) | 16.3 µM (inactive) | 12.8 µM (inactive) | 13.8 µM (inactive) | 16.3 µM (inactive) | 4.19 µM (inactive) | 11.9 µM (inactive) | 10.3 µM (inactive) | 4.75 µM (inactive) | 3.78 µM (inactive) | 15.1 µM (inactive) | 6.21 µM (inactive) | 16.1 µM (inactive) | 15.4 | 12.6 µM (inactive) | 15.5 µM (inactive) | 12.7 µM (inactive) | 14.6 µM (inactive) | 15.2 µM (inactive) |
| O=c1nc(N2CCNCC2)oc2cc(Cl)oc(=O)c12 | 2.45 µM (inactive) | 1.83 µM (inactive) | 2.79 µM (inactive) | 3.93 µM (inactive) | 6.47 µM (inactive) | 2.26 µM (inactive) | 3.91 µM (inactive) | 2.7 µM (inactive) | 4.44 µM (inactive) | 3.94 µM (inactive) | 1.67 µM (inactive) | 3.98 µM (inactive) | 3.13 µM (inactive) | 8.49 µM (inactive) | 3.25 | 1.7 µM (inactive) | 2 µM (inactive) | 3.91 µM (inactive) | 7.52 µM (inactive) | 0.716 µM (active) |
| O=C(Nc1cccc(-c2cn3ccccc3n2)c1)c1ccncc1 | 33.7 µM (inactive) | 27.3 µM (inactive) | 19.2 µM (inactive) | 29.3 µM (inactive) | 21.7 µM (inactive) | 64.9 µM (inactive) | 35.8 µM (inactive) | 40.9 µM (inactive) | 31.9 µM (inactive) | 98.2 µM (inactive) | 17.1 µM (inactive) | 31.6 µM (inactive) | 48.5 µM (inactive) | 22.6 µM (inactive) | 24.2 | 23.6 µM (inactive) | 34 µM (inactive) | 48.2 µM (inactive) | 44.9 µM (inactive) | 21.7 µM (inactive) |
| CC(C)CC(N)C(=O)O (stereo not given) | > 100 µM (inactive) | > 100 µM (inactive) | > 100 µM (inactive) | > 100 µM (inactive) | > 100 µM (inactive) | > 100 µM (inactive) | > 100 µM (inactive) | > 100 µM (inactive) | > 100 µM (inactive) | > 100 µM (inactive) | > 100 µM (inactive) | > 100 µM (inactive) | > 100 µM (inactive) | > 100 µM (inactive) | > 100 | > 100 µM (inactive) | > 100 µM (inactive) | > 100 µM (inactive) | > 100 µM (inactive) | > 100 µM (inactive) |
| COc1ccc2c3c([nH]c2c1)[C@H](C=C(C)C)N1C(=O)[C@@H]2CCCN2C(=O)[C@@H]1C3 [FUMITREMORGIN] | > 100 µM (inactive) | > 100 µM (inactive) | > 100 µM (inactive) | 78.3 µM (inactive) | > 100 µM (inactive) | > 100 µM (inactive) | > 100 µM (inactive) | > 100 µM (inactive) | > 100 µM (inactive) | 38.7 µM (inactive) | > 100 µM (inactive) | > 100 µM (inactive) | 22.2 µM (inactive) | > 100 µM (inactive) | > 100 | > 100 µM (inactive) | 64.4 µM (inactive) | 73.1 µM (inactive) | > 100 µM (inactive) | > 100 µM (inactive) |
| O=C(/C=C/c1ccc(O)cc1)c1cc(-c2cc(CCC(=O)c3ccc(O)cc3O)ccc2O)c(O)cc1O | 41.6 µM (inactive) | 13.1 µM (inactive) | 30.6 µM (inactive) | 24.9 µM (inactive) | > 50 µM (inactive) | 29.9 µM (inactive) | 14.4 µM (inactive) | 16.2 µM (inactive) | 17 µM (inactive) | 15.2 µM (inactive) | 16.3 µM (inactive) | 28.1 µM (inactive) | 21.7 µM (inactive) | 33.7 µM (inactive) | > 50 | 22.3 µM (inactive) | 25.5 µM (inactive) | 17.5 µM (inactive) | > 50 µM (inactive) | 36.1 µM (inactive) |
| C=C[C@@]1(C)CC(=O)[C@]2(O)[C@@]3(C)[C@@H](O)CCC(C)(C)[C@@H]3[C@H](O)[C@@H](OC(C)=O)[C@@]2(C)O1 | > 100 µM (inactive) | > 100 µM (inactive) | 54.5 µM (inactive) | > 100 µM (inactive) | > 100 µM (inactive) | > 100 µM (inactive) | 68.7 µM (inactive) | > 100 µM (inactive) | > 100 µM (inactive) | > 100 µM (inactive) | 18.7 µM (inactive) | 22.1 µM (inactive) | > 100 µM (inactive) | > 100 µM (inactive) | > 100 | > 100 µM (inactive) | > 100 µM (inactive) | > 100 µM (inactive) | > 100 µM (inactive) | > 100 µM (inactive) |
| CC(=O)Nc1ccc2c3c(cc(O)c2c1)N(C(=O)CCCCC(=O)N1CC(CCl)c2c1cc(O)c1cc(NC(C)=O)ccc21)CC3CCl (stereo not given) | 0.083 µM (active) | < 0.01 µM (active) | 0.0129 µM (active) | 0.149 µM (active) | 21.3 µM (inactive) | 0.518 µM (active) | 0.301 µM (active) | 0.352 µM (active) | 0.186 µM (active) | 0.207 µM (active) | 0.169 µM (active) | < 0.01 µM (active) | 0.27 µM (active) | 0.144 µM (active) | 12.9 | 0.0575 µM (active) | 0.253 µM (active) | 0.0285 µM (active) | 0.147 µM (active) | 0.183 µM (active) |
| CCCCCCc1cc2cc(C(=O)Nc3cccc(C(F)(F)F)c3)c(=N)oc2cc1O | 2.29 µM (inactive) | 0.933 µM (active) | 0.316 µM (active) | 1.17 µM (inactive) | 2.06 µM (inactive) | 2.2 µM (inactive) | 5.96 µM (inactive) | 1.19 µM (inactive) | 2 µM (inactive) | 0.348 µM (active) | 0.524 µM (active) | 1.62 µM (inactive) | 2.57 µM (inactive) | 2.17 µM (inactive) | 1.43 | 0.351 µM (active) | 1.26 µM (inactive) | 1.33 µM (inactive) | 2.06 µM (inactive) | 1.66 µM (inactive) |
| Cc1n(-c2ccccc2)c2c([n+]1Cc1ccc([N+](=O)[O-])cc1)C(=O)c1ccccc1C2=O | 2.59 µM (inactive) | 1.82 µM (inactive) | 1.64 µM (inactive) | 1.67 µM (inactive) | 2.05 µM (inactive) | 2.12 µM (inactive) | 2.38 µM (inactive) | 0.855 µM (active) | 1.74 µM (inactive) | 2.3 µM (inactive) | 0.845 µM (active) | 1.37 µM (inactive) | 1.81 µM (inactive) | 1.48 µM (inactive) | 9.12 | 0.579 µM (active) | 2.37 µM (inactive) | 1.75 µM (inactive) | 3.56 µM (inactive) | 1.79 µM (inactive) |
| Cc1cc(N(CCOS(C)(=O)=O)CCOS(C)(=O)=O)ccc1/C=N/c1ccc(-c2csc(-c3ccccc3)n2)c(Cl)c1 | 8.67 µM (inactive) | 1.1 µM (active) | 15.4 µM (inactive) | 11.9 µM (inactive) | 13.3 µM (inactive) | 5.2 µM (inactive) | 9.91 µM (inactive) | 8.2 µM (inactive) | 9.79 µM (inactive) | 9.64 µM (inactive) | 11.2 µM (inactive) | 4.27 µM (inactive) | 21.6 µM (inactive) | 21 µM (inactive) | 8.04 | 1.63 µM (inactive) | 15.9 µM (inactive) | 16.1 µM (inactive) | 1.95 µM (inactive) | 19.2 µM (inactive) |
| Cc1cc2cc3c(cc2c(-c2ccc([N+](=O)[O-])cc2)n1)OCO3 | 88.7 µM (inactive) | 31.6 µM (inactive) | 34.9 µM (inactive) | 61.1 µM (inactive) | 44.6 µM (inactive) | 29.4 µM (inactive) | 56.8 µM (inactive) | 15.5 µM (inactive) | 65.9 µM (inactive) | 3.77 µM (inactive) | 35.8 µM (inactive) | 37.8 µM (inactive) | 41.1 µM (inactive) | 39.1 µM (inactive) | 26.5 | 14.4 µM (inactive) | 28.5 µM (inactive) | 23.7 µM (inactive) | 25.8 µM (inactive) | 17.2 µM (inactive) |
